Tests used:
[1] = molecular target: T1, lysosomal acid lipase (LAL) (Homo sapiens, UniProt P38571); assay: Testing potential LAL substrates with DBS; type: biochemical
T1 construct: from tissue; host or cells: dried blood spots (DBS) from healthy adults, healthy children and LAL-deficient patients
T1 sequence (P38571 77-399): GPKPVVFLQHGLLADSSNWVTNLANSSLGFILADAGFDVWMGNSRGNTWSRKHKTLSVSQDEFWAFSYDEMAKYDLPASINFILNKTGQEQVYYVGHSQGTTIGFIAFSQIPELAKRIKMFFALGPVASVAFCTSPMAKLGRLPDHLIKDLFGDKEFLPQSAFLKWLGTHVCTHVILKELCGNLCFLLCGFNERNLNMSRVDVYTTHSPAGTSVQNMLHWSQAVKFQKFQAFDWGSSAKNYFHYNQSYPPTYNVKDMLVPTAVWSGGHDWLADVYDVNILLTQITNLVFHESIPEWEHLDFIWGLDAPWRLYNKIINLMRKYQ
Experimental: Compound 8. Assay cocktail contained 0.69 mM Compound 8, 10 mM internal standard (analog of the product containing an n-hexanoyl amide tail instead of the n-pentanoyl amide tail) in 0.15 M sodium acetate, pH 4.02, containing 0.1% Triton X-100. Assay cocktail (30 mL) was added to a 3 mm DBS punch from a normal adult and 10 mL of 30 mM aqueous Lalistat-2 or H2O was added, and the mixture was incubated at 37° C. for 16 hr in an Eppendorf tube with orbital shaking at 250 rpm. The assay was quenched by addition of 120 mL of acetonitrile. The sample was centrifuged for 5 min at 3000×g, and 120 mL of supernatant was transferred to an autosampler plate. Water (60 mL) was added to the well, and 10 mL was injected for UPLC-MS/MS. Compound 8 product was analyzed by UPLC-MS/MS using the authentic product as a standard to establish UPLC and MS/MS conditions.
Compound 9. Assay cocktail contained 0.3 mM Compound 9 (from a 10 mM DMSO stock) in a 14:1 solution of 0.15 M sodium acetate pH 4.0 1% Triton-X-100 and 0.5% m/v cardiolipin in methanol. […] Compound 9 product was analyzed by UPLC-MS/MS using the authentic product as a standard to establish UPLC and MS/MS conditions.
Compounds 10-13. […] Samples were immediately read on a plate-reader fluorometer with an excitation wavelength of 355 nm and emission wavelength of 460 nm. […]

[2] = molecular target: T1, lysosomal acid lipase (LAL); assay: Previous fluorometric LAL assay (Hamilton et al.) with palmitoyl-4MU with and without Lalistat-2 in DBS; type: biochemical
Text: LAL is detected in leukocytes or fibroblasts using radiometric, immunologic, or fluorescence assays (The metabolic and molecular bases of inherited disease. 8th Ed. New York (NY): McGraw-Hill; 2001. p. 3827-3387). Hamilton and colleagues recently developed a fluorometric assay to detect LAL in dried blood spots (DBS) (Hamilton et al., Clin Chim Acta 2012; 413:1207-10). The assay is based on the release of 4-methylumbelliferone from its ester with palmitic acid. However, the substrate is not specific for LAL, and the method requires two assays performed in parallel, the first in the presence of a LAL-specific covalent inactivator Lalistat-2. LAL activity is calculated from the difference in these 2 assays.
A concentration of P-PMHC in the mixture of 3 mmol/L was settled on based on a combination of high LAL activity and minimal background. The original assay described by Hamilton et al. (Clin Chim Acta 2012; 413:1207-10) used 40 μL of an aqueous extract of a 3-mm DBS added to 160 μL of assay mixture. To keep the solvent volumes for the liquid-liquid extraction to a minimum, thus avoiding long times for solvent removal, 10 μL of an aqueous extract of a 3-mm DBS punch was added to 30 μL of assay mixture.

| Molecule | detectable LAL activity when tested with DBS [1] | specific activity for the LAL component ([2]; 3-mm punch from an identical DBS, previous fluorometric assay with and without Lalistat-2) [µmol/h/L] | fold lower than the activity measured with the UPLC-MS/MS assay ([2]; 466 versus 874 μmol/h/L, identical DBS) [fold] | fraction of the substrate hydrolyzed by esterases/lipases in DBS other than LAL ([2]; DBS) |
| --- | --- | --- | --- | --- |
| 4-propyl-8-methyl-7-palmitoyloxycoumarin [Compound 1] | None of these compounds displayed detectable LAL activity |  |  |  |
| CCCCCCCCCCCCCCCC(=O)Oc1ccc2c(C)cc(=O)oc2c1 [palmitoyl-4MU] | displayed measurable LAL activity | 466 | 1.9 | about one third |

Reference: patent US11396499B2, “Lysosomal acid lipase assay” (University of Washington, priority 2018, dated 2022)
